Measurements reported in ChEMBL document CHEMBL3390848, “Affinity selection and sequence-activity relationships of HIV-1 membrane fusion inhibitors directed at the drug-resistant variants” (Medchemcomm, 2010).
pEC50: −log10 of the molar value. Residues, ends and D or L forms follow the SMILES beside them.

Tests used:
[1] = system: Human immunodeficiency virus 1; test: Binding affinity to HIV1 His-tagged N-terminal heptad repeat of envelope glycoprotein gp41 assessed as recovery of N36-drug complex at 6 uM after 2 hrs by LC-MS analysis
[2] = system: Human immunodeficiency virus 1; test: Antiviral activity against HIV1 NL4-3 harboring gp41 D36G mutant infected in human HeLa cells expressing CD4-LTR-beta-gal assessed as inhibition of viral replication after 48 hrs by MAGI assay; type: functional, organism-based
[3] = system: Human immunodeficiency virus 1; test: Binding affinity to HIV1 His-tagged N-terminal heptad repeat of envelope glycoprotein gp41 assessed as recovery of N36-drug complex at 1 uM after 2 hrs by LC-MS analysis
[4] = system: Human immunodeficiency virus 1; test: Binding affinity to HIV1 His-tagged N-terminal heptad repeat of envelope glycoprotein gp41 assessed as recovery of N36-drug complex at 10 uM after 2 hrs by LC-MS analysis
[5] = system: Human immunodeficiency virus 1; test: Binding affinity to HIV1 His-tagged N-terminal heptad repeat of envelope glycoprotein gp41 assessed as recovery of N36-drug complex at 0.6 uM after 2 hrs by LC-MS analysis
[6] = system: Human immunodeficiency virus 1; test: Thermal stability of HIV1 envelope glycoprotein gp41 His-tagged N-terminal heptad repeat N36-drug complex assessed as thermal unfolding transition state by measuring molar ellipticity at 4 to 90 degC by circular dichroic spectra analysis
[7] = system: Human immunodeficiency virus 1; test: Binding affinity to HIV1 His-tagged N-terminal heptad repeat of envelope glycoprotein gp41 assessed as recovery of N36-drug complex after 2 hrs by LC-MS analysis; design: concentration or dose not given beside the values

SMILES	Activity [1] [%]	pEC50 [2]	Activity [3] [%]	Activity [4] [%]	Activity [5] [%]	Tm [6] [°C]	Activity [7] [%]
CC[C@H](C)[C@H](NC(=O)[C@H](CC(C)C)NC(=O)[C@H](CCC(=O)O)NC(=O)[C@H](CCC(=O)O)NC(=O)[C@@H](NC(=O)[C@H](CCCCN)NC(=O)[C@H](CCCCN)NC(=O)[C@@H](NC(=O)[C@H](Cc1ccc(O)cc1)NC(=O)[C@H](CCC(=O)O)NC(=O)[C@H](CCC(=O)O)NC(=O)[C@@H](NC(=O)[C@H](CCCCN)NC(=O)[C@H](CCCCN)NC(=O)[C@H](CC(=O)O)NC(=O)[C@H](Cc1c[nH]c2ccccc12)NC(=O)[C@H](CCC(=O)O)NC(=O)[C@H](CCC(=O)O)NC(=O)[C@H](Cc1c[nH]c2ccccc12)NC(C)=O)[C@@H](C)CC)[C@@H](C)O)[C@@H](C)CC)C(=O)N[C@@H](CCCCN)C(=O)N[C@@H](CCCCN)C(=O)N[C@@H](CC(=O)O)C(=O)N[C@@H](CCC(=O)O)C(=O)N[C@@H](CCC(=O)O)C(=O)N[C@@H](CCC(N)=O)C(=O)N[C@@H](CCC(N)=O)C(=O)N[C@@H](CCCCN)C(=O)N[C@@H](CCCCN)C(=O)N[C@@H](CC(N)=O)C(=O)N[C@@H](CCC(=O)O)C(=O)N[C@@H](CCC(=O)O)C(=O)N[C@@H](CCC(=O)O)C(=O)N[C@@H](CC(C)C)C(=O)N[C@@H](CCCCN)C(=O)N[C@@H](CCCCN)C(N)=O (Ac-WEEWDKKIEEYTKKIEELIKKDEEQQKKNEEELKK-NH2)	0	7.82	0	0.7	4.3	59.7	–
CC[C@H](C)[C@H](NC(=O)[C@H](CC(C)C)NC(=O)[C@H](CCC(=O)O)NC(=O)[C@H](CCC(=O)O)NC(=O)[C@@H](NC(=O)[C@H](CCCCN)NC(=O)[C@H](CCCCN)NC(=O)[C@@H](NC(=O)[C@H](Cc1ccc(O)cc1)NC(=O)[C@H](CCC(=O)O)NC(=O)[C@H](CCC(=O)O)NC(=O)[C@@H](NC(=O)[C@H](CCCCN)NC(=O)[C@H](CCCCN)NC(=O)[C@H](CC(=O)O)NC(=O)[C@H](Cc1c[nH]c2ccccc12)NC(=O)[C@H](CCC(=O)O)NC(=O)[C@H](CCC(=O)O)NC(=O)[C@H](Cc1c[nH]c2ccccc12)NC(C)=O)[C@@H](C)CC)[C@@H](C)O)[C@@H](C)CC)C(=O)N[C@@H](CCCCN)C(=O)N[C@@H](CCCCN)C(=O)N[C@@H](CCC(=O)O)C(=O)N[C@@H](CCC(=O)O)C(=O)N[C@@H](CCC(=O)O)C(=O)N[C@@H](CCC(N)=O)C(=O)N[C@@H](CCC(N)=O)C(=O)N[C@@H](CCCCN)C(=O)N[C@@H](CCCCN)C(=O)N[C@@H](CC(N)=O)C(=O)N[C@@H](CCC(=O)O)C(=O)N[C@@H](CCC(=O)O)C(=O)N[C@@H](CCC(=O)O)C(=O)N[C@@H](CC(C)C)C(=O)N[C@@H](CCCCN)C(=O)N[C@@H](CCCCN)C(N)=O (Ac-WEEWDKKIEEYTKKIEELIKKEEEQQKKNEEELKK-NH2)	1	7.82	1.8	1.3	5.1	66.2	–
CC[C@H](C)[C@H](NC(=O)[C@H](CC(C)C)NC(=O)[C@H](CCC(=O)O)NC(=O)[C@H](CCC(=O)O)NC(=O)[C@@H](NC(=O)[C@H](CCCCN)NC(=O)[C@H](CCCCN)NC(=O)[C@@H](NC(=O)[C@H](Cc1ccc(O)cc1)NC(=O)[C@H](CCC(=O)O)NC(=O)[C@H](CCC(=O)O)NC(=O)[C@@H](NC(=O)[C@H](CCCCN)NC(=O)[C@H](CCCCN)NC(=O)[C@H](CC(=O)O)NC(=O)[C@H](Cc1c[nH]c2ccccc12)NC(=O)[C@H](CCC(=O)O)NC(=O)[C@H](CCC(=O)O)NC(=O)[C@H](Cc1c[nH]c2ccccc12)NC(C)=O)[C@@H](C)CC)[C@@H](C)O)[C@@H](C)CC)C(=O)N[C@@H](CCCCN)C(=O)N[C@@H](CCCCN)C(=O)N[C@@H](Cc1ccccc1)C(=O)N[C@@H](CCC(=O)O)C(=O)N[C@@H](CCC(=O)O)C(=O)N[C@@H](CCC(N)=O)C(=O)N[C@@H](CCC(N)=O)C(=O)N[C@@H](CCCCN)C(=O)N[C@@H](CCCCN)C(=O)N[C@@H](CC(N)=O)C(=O)N[C@@H](CCC(=O)O)C(=O)N[C@@H](CCC(=O)O)C(=O)N[C@@H](CCC(=O)O)C(=O)N[C@@H](CC(C)C)C(=O)N[C@@H](CCCCN)C(=O)N[C@@H](CCCCN)C(N)=O (Ac-WEEWDKKIEEYTKKIEELIKKFEEQQKKNEEELKK-NH2)	0.6	8.82	4	0.7	6.3	72.9	–
CC[C@H](C)[C@H](NC(=O)[C@H](CC(C)C)NC(=O)[C@H](CCC(=O)O)NC(=O)[C@H](CCC(=O)O)NC(=O)[C@@H](NC(=O)[C@H](CCCCN)NC(=O)[C@H](CCCCN)NC(=O)[C@@H](NC(=O)[C@H](Cc1ccc(O)cc1)NC(=O)[C@H](CCC(=O)O)NC(=O)[C@H](CCC(=O)O)NC(=O)[C@@H](NC(=O)[C@H](CCCCN)NC(=O)[C@H](CCCCN)NC(=O)[C@H](CC(=O)O)NC(=O)[C@H](Cc1c[nH]c2ccccc12)NC(=O)[C@H](CCC(=O)O)NC(=O)[C@H](CCC(=O)O)NC(=O)[C@H](Cc1c[nH]c2ccccc12)NC(C)=O)[C@@H](C)CC)[C@@H](C)O)[C@@H](C)CC)C(=O)N[C@@H](CCCCN)C(=O)N[C@@H](CCCCN)C(=O)NCC(=O)N[C@@H](CCC(=O)O)C(=O)N[C@@H](CCC(=O)O)C(=O)N[C@@H](CCC(N)=O)C(=O)N[C@@H](CCC(N)=O)C(=O)N[C@@H](CCCCN)C(=O)N[C@@H](CCCCN)C(=O)N[C@@H](CC(N)=O)C(=O)N[C@@H](CCC(=O)O)C(=O)N[C@@H](CCC(=O)O)C(=O)N[C@@H](CCC(=O)O)C(=O)N[C@@H](CC(C)C)C(=O)N[C@@H](CCCCN)C(=O)N[C@@H](CCCCN)C(N)=O (Ac-WEEWDKKIEEYTKKIEELIKKGEEQQKKNEEELKK-NH2)	14.4	8.72	11.6	13.8	5.9	79.1	–
CC[C@H](C)[C@H](NC(=O)[C@H](CC(C)C)NC(=O)[C@H](CCC(=O)O)NC(=O)[C@H](CCC(=O)O)NC(=O)[C@@H](NC(=O)[C@H](CCCCN)NC(=O)[C@H](CCCCN)NC(=O)[C@@H](NC(=O)[C@H](Cc1ccc(O)cc1)NC(=O)[C@H](CCC(=O)O)NC(=O)[C@H](CCC(=O)O)NC(=O)[C@@H](NC(=O)[C@H](CCCCN)NC(=O)[C@H](CCCCN)NC(=O)[C@H](CC(=O)O)NC(=O)[C@H](Cc1c[nH]c2ccccc12)NC(=O)[C@H](CCC(=O)O)NC(=O)[C@H](CCC(=O)O)NC(=O)[C@H](Cc1c[nH]c2ccccc12)NC(C)=O)[C@@H](C)CC)[C@@H](C)O)[C@@H](C)CC)C(=O)N[C@@H](CCCCN)C(=O)N[C@@H](CCCCN)C(=O)N[C@@H](Cc1cnc[nH]1)C(=O)N[C@@H](CCC(=O)O)C(=O)N[C@@H](CCC(=O)O)C(=O)N[C@@H](CCC(N)=O)C(=O)N[C@@H](CCC(N)=O)C(=O)N[C@@H](CCCCN)C(=O)N[C@@H](CCCCN)C(=O)N[C@@H](CC(N)=O)C(=O)N[C@@H](CCC(=O)O)C(=O)N[C@@H](CCC(=O)O)C(=O)N[C@@H](CCC(=O)O)C(=O)N[C@@H](CC(C)C)C(=O)N[C@@H](CCCCN)C(=O)N[C@@H](CCCCN)C(N)=O (Ac-WEEWDKKIEEYTKKIEELIKKHEEQQKKNEEELKK-NH2)	0.6	8.72	2.4	0.9	5.7	62.9	–
CC[C@H](C)[C@H](NC(=O)[C@H](CC(C)C)NC(=O)[C@H](CCC(=O)O)NC(=O)[C@H](CCC(=O)O)NC(=O)[C@@H](NC(=O)[C@H](CCCCN)NC(=O)[C@H](CCCCN)NC(=O)[C@@H](NC(=O)[C@H](Cc1ccc(O)cc1)NC(=O)[C@H](CCC(=O)O)NC(=O)[C@H](CCC(=O)O)NC(=O)[C@@H](NC(=O)[C@H](CCCCN)NC(=O)[C@H](CCCCN)NC(=O)[C@H](CC(=O)O)NC(=O)[C@H](Cc1c[nH]c2ccccc12)NC(=O)[C@H](CCC(=O)O)NC(=O)[C@H](CCC(=O)O)NC(=O)[C@H](Cc1c[nH]c2ccccc12)NC(C)=O)[C@@H](C)CC)[C@@H](C)O)[C@@H](C)CC)C(=O)N[C@@H](CCCCN)C(=O)N[C@@H](CCCCN)C(=O)N[C@@H](CO)C(=O)N[C@@H](CCC(=O)O)C(=O)N[C@@H](CCC(=O)O)C(=O)N[C@@H](Cc1c[nH]c2ccccc12)C(=O)N[C@@H](CCC(N)=O)C(=O)N[C@@H](CCCCN)C(=O)N[C@@H](CCCCN)C(=O)N[C@@H](CC(N)=O)C(=O)N[C@@H](CCC(=O)O)C(=O)N[C@@H](CCC(=O)O)C(=O)N[C@@H](CCC(=O)O)C(=O)N[C@@H](CC(C)C)C(=O)N[C@@H](CCCCN)C(=O)N[C@@H](CCCCN)C(N)=O (Ac-WEEWDKKIEEYTKKIEELIKKSEEWQKKNEEELKK-NH2)	–	8.77	–	–	–	77.1	7.1
CC[C@H](C)[C@H](NC(=O)[C@H](CC(C)C)NC(=O)[C@H](CCC(=O)O)NC(=O)[C@H](CCC(=O)O)NC(=O)[C@@H](NC(=O)[C@H](CCCCN)NC(=O)[C@H](CCCCN)NC(=O)[C@@H](NC(=O)[C@H](Cc1ccc(O)cc1)NC(=O)[C@H](CCC(=O)O)NC(=O)[C@H](CCC(=O)O)NC(=O)[C@@H](NC(=O)[C@H](CCCCN)NC(=O)[C@H](CCCCN)NC(=O)[C@H](CC(=O)O)NC(=O)[C@H](Cc1c[nH]c2ccccc12)NC(=O)[C@H](CCC(=O)O)NC(=O)[C@H](CCC(=O)O)NC(=O)[C@H](Cc1c[nH]c2ccccc12)NC(C)=O)[C@@H](C)CC)[C@@H](C)O)[C@@H](C)CC)C(=O)N[C@@H](CCCCN)C(=O)N[C@@H](CCCCN)C(=O)N[C@@H](CO)C(=O)N[C@@H](CCC(=O)O)C(=O)N[C@@H](CCC(=O)O)C(=O)N[C@@H](Cc1ccc(O)cc1)C(=O)N[C@@H](CCC(N)=O)C(=O)N[C@@H](CCCCN)C(=O)N[C@@H](CCCCN)C(=O)N[C@@H](CC(N)=O)C(=O)N[C@@H](CCC(=O)O)C(=O)N[C@@H](CCC(=O)O)C(=O)N[C@@H](CCC(=O)O)C(=O)N[C@@H](CC(C)C)C(=O)N[C@@H](CCCCN)C(=O)N[C@@H](CCCCN)C(N)=O (Ac-WEEWDKKIEEYTKKIEELIKKSEEYQKKNEEELKK-NH2)	–	8.66	–	–	–	76.3	5.5
